Experimental data from ChEMBL document CHEMBL1141384, “Discovery of a potent, selective, and orally active human epidermal growth factor receptor-2 sheddase inhibitor for the treatment of cancer” (J Med Chem, 2007).
Activity calls are given as the source filed them. The calls are words filed in the database; no cut-off is given here.

Experiments:
[1] = target: T1, Disintegrin and metalloproteinase domain-containing protein 10 (Homo sapiens, UniProt O14672); assay: Inhibition of ADAM10
T1 sequence (O14672 whole entry): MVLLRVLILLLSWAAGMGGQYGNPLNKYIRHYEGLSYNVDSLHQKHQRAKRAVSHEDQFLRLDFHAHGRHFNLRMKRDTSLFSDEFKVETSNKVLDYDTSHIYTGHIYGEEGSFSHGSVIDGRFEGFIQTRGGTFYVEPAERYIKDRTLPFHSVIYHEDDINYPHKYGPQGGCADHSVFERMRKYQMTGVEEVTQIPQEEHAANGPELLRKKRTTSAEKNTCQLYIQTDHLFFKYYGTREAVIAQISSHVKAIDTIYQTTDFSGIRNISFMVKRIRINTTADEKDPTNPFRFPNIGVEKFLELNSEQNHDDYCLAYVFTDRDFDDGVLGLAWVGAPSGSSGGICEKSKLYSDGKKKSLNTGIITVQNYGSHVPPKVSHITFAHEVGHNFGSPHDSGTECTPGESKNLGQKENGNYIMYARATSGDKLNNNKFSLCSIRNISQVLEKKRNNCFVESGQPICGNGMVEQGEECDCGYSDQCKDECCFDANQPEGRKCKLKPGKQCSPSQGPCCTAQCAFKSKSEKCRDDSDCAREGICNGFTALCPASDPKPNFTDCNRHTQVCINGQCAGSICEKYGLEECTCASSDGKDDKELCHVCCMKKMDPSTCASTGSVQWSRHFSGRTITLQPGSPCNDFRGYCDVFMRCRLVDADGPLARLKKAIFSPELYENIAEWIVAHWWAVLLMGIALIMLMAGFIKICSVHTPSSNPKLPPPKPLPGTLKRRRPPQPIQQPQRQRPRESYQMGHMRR

Interstitial collagenase = target: T2, Interstitial collagenase (Homo sapiens, UniProt P03956); assay: Inhibition of MMP1
T2 sequence (P03956 whole entry): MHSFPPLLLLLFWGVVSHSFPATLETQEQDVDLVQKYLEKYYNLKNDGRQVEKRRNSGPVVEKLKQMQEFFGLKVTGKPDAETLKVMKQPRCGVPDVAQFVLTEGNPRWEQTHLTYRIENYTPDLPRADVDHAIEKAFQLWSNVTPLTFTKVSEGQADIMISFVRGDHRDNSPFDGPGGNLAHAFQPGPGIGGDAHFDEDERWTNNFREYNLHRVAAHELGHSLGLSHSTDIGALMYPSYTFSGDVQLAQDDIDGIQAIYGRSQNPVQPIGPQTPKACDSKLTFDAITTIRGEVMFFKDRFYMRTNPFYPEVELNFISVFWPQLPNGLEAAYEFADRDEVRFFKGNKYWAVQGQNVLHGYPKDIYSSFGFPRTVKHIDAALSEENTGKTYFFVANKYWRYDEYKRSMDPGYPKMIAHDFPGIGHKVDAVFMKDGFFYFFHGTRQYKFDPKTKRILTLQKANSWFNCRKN

[2] = target: 72 kDa type IV collagenase (Homo sapiens, UniProt P08253); assay: Inhibition of MMP2
Stromelysin-1 = Stromelysin-1 (Homo sapiens, UniProt P08254); assay: Inhibition of MMP3
[3] = target: Matrix metalloproteinase-9 (Homo sapiens, UniProt P14780); assay: Inhibition of MMP9
[4] = Clearance in murine; format: ADME, organism-based; settings: mouse, in vivo
[5] = Protein binding in murine plasma; format: ADME, organism-based; settings: mouse, read-out: PPB (converted)
[6] = AUC (0-24h) in murine at 10 mg/kg, po; format: ADME, organism-based; parameters: time < 24 hr, dose 10 mg/kg, route oral; settings: mouse, in vivo
[7] = Cmax in murine at 10 mg/kg, po; format: ADME, organism-based; parameters: dose 10 mg/kg, route oral; settings: mouse, in vivo
[8] = target: Receptor tyrosine-protein kinase erbB-2 (Homo sapiens) (UniProt P04626); assay: Inhibition of Her2 sheddase activity in BT474 cell line; format: functional, cell-based; settings: BT-474
Chain of Receptor tyrosine-protein kinase erbB-2 (Homo sapiens) (P04626 whole entry): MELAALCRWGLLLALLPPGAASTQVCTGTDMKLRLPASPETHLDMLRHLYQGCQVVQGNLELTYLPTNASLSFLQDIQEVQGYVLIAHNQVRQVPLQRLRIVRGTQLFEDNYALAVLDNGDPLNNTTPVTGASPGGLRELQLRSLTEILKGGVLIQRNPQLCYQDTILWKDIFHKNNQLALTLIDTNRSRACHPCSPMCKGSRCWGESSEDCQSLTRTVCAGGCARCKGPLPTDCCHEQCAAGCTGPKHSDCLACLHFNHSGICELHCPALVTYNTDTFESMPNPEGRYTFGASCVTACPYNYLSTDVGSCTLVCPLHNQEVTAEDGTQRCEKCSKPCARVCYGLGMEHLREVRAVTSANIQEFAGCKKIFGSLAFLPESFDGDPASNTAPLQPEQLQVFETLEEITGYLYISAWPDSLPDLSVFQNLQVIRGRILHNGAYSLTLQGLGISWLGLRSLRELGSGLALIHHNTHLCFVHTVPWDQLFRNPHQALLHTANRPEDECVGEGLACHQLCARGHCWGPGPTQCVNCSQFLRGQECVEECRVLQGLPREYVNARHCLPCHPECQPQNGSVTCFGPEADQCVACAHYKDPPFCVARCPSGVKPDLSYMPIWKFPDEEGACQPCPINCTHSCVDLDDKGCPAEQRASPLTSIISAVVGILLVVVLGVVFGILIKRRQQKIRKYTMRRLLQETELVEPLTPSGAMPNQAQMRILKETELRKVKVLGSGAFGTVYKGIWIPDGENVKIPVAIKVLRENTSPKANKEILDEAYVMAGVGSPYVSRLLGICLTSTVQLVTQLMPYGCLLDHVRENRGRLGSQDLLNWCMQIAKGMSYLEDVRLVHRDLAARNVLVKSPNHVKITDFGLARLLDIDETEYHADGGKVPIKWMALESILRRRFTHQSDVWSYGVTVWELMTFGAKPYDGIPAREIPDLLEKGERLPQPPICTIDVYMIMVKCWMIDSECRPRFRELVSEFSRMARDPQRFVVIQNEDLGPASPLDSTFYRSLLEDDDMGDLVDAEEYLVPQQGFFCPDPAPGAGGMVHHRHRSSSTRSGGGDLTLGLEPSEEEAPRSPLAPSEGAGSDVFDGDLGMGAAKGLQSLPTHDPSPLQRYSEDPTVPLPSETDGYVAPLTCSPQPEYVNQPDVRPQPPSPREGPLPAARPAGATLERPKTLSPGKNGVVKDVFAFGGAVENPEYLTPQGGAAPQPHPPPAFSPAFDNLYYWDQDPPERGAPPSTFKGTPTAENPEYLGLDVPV

Chain of Stromelysin-1 (P08254 whole entry): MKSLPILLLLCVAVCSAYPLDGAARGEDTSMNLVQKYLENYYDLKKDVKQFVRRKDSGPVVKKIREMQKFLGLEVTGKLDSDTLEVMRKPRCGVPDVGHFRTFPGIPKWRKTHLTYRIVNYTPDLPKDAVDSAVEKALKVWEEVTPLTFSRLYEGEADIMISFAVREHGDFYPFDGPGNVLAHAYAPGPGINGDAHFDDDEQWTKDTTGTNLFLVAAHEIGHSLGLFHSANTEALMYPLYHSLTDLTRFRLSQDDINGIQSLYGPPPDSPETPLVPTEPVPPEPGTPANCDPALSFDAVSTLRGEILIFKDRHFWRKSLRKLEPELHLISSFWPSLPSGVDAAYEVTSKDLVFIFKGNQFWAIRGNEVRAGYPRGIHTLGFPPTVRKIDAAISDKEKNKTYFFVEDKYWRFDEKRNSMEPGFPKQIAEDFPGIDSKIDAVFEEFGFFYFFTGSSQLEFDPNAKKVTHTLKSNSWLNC
Chain of 72 kDa type IV collagenase (P08253 whole entry): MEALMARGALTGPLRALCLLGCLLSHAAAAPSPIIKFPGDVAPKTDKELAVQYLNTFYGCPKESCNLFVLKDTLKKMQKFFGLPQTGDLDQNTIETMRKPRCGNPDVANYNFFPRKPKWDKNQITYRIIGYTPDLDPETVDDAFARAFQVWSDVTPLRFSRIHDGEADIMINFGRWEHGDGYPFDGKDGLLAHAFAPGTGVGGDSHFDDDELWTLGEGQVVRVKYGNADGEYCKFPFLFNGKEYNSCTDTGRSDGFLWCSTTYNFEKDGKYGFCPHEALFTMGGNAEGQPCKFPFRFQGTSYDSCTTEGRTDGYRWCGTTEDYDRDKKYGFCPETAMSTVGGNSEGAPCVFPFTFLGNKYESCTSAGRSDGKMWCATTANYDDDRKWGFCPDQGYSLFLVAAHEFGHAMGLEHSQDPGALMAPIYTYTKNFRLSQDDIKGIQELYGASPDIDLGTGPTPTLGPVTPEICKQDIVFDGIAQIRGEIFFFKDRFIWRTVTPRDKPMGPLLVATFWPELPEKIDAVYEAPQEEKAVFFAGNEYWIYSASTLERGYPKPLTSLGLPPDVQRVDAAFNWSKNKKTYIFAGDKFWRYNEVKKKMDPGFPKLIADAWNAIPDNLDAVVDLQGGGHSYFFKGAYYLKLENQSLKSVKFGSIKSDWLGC
Chain of Matrix metalloproteinase-9 (P14780 whole entry): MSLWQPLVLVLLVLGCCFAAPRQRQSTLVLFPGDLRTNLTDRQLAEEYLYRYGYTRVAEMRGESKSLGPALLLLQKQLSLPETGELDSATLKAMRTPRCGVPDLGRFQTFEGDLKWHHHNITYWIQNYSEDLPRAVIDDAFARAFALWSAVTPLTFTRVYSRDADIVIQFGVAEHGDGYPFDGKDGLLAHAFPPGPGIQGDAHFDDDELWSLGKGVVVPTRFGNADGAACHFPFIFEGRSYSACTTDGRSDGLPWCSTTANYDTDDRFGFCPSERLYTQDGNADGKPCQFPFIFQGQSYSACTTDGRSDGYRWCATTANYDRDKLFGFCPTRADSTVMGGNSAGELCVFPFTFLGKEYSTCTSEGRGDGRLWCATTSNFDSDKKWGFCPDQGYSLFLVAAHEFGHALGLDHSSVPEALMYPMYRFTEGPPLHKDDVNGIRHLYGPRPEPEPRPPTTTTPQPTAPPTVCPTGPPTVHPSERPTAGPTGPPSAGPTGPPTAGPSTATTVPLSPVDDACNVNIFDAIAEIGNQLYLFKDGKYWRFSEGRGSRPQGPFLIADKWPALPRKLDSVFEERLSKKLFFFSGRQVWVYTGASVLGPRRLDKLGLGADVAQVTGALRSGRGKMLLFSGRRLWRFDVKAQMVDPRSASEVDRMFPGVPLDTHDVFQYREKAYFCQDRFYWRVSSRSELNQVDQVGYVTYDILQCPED

Row | Compound | IC50 [1] [nM] | IC50 (Interstitial collagenase) [nM] | IC50 [2] [nM] | IC50 (Stromelysin-1) [nM] | IC50 [3] [nM] | clearance [4] [mL/min/kg] | fraction unbound [5] | AUC(0-t) at 24 h [6] [µM·h] | Cmax [7] [µM] | Activity [8]
1 | COC(=O)N1CC2(CC2)C[C@H](C(=O)NO)[C@H]1C(=O)N1CC=C(c2ccccc2)CC1 | – | > 5000 | 39 | 4000 | 428 | 6.67 | 0.7 | 3.9 | 7.7 | –
2 | Cc1cc([N+](=O)[O-])ccc1N1CCN(C(=O)[C@H]2NCC3(CC3)C[C@@H]2C(=O)NO)CC1 | 110 | > 5000 | > 1000 | > 1000 | > 5000 | – | – | – | – | –
3 | O=C(NO)[C@H]1CC2(CC2)CN[C@@H]1C(=O)N1CCC(c2ccccc2)CC1 | 320 | > 5000 | 450 | > 5000 | > 5000 | – | – | – | – | –
4 | Cc1ccccc1N1CCN(C(=O)[C@H]2NCC3(CC3)C[C@@H]2C(=O)NO)CC1 | > 5000 | > 5000 | > 5000 | > 5000 | > 5000 | – | – | – | – | inactive
5 | O=C(NO)[C@H]1CC2(CC2)CN[C@@H]1C(=O)N1CCN2c3ccccc3CC2C1 (stereo partly specified) | 330 | > 5000 | 350 | > 5000 | > 5000 | – | – | – | – | –
6 | CN1CC2(CC2)C[C@H](C(=O)NO)[C@H]1C(=O)N1CCN(c2ccccc2)CC1 | 310 | > 5000 | 150 | > 5000 | > 5000 | – | – | – | – | –
7 | Cc1cc([N+](=O)[O-])ccc1C1=CCN(C(=O)[C@H]2NCC3(CC3)C[C@@H]2C(=O)NO)CC1 | 130 | > 5000 | > 5000 | > 5000 | > 5000 | – | – | – | – | –
8 | CC1=C(c2ccccc2)CCN(C(=O)[C@H]2NCC3(CC3)C[C@@H]2C(=O)NO)C1 | 720 | > 5000 | > 5000 | > 5000 | > 5000 | – | – | – | – | –
9 | O=C(NO)[C@H]1CCCN[C@@H]1C(=O)N1CC[C@H](c2ccccc2)C1 | 480 | – | – | – | – | – | – | – | – | –
10 | CCC(C)NC(=O)[C@@H]1[C@@H](C(=O)NO)CC2(CC2)CN1C (stereo partly specified) | – | > 5000 | > 1000 | > 1000 | > 5000 | – | – | – | – | inactive

Now from value to molecule:

Row | IC50 [1] [nM] | IC50 (Interstitial collagenase) [nM] | IC50 [2] [nM] | IC50 (Stromelysin-1) [nM] | IC50 [3] [nM] | clearance [4] [mL/min/kg] | fraction unbound [5] | AUC(0-t) at 24 h [6] [µM·h] | Cmax [7] [µM] | Activity [8] | Compound
11 | 23 | 2500 | 13 | 450 | 77 | – | – | – | – | – | O=C(NO)[C@H]1CC2(CC2)CN[C@@H]1C(=O)N1CC=C(c2ccccc2)C1
12 | – | > 5000 | 960 | > 3000 | > 3000 | – | – | – | – | – | O=C(NO)[C@H]1CC2(CC2)CN[C@@H]1C(=O)N1CC[C@H](c2ccccc2)C1
13 | 77 | > 5000 | 64 | > 1000 | > 5000 | – | – | – | – | – | CN1CC2(CC2)C[C@H](C(=O)NO)[C@H]1C(=O)N1CC=C(c2ccccc2)CC1
14 | – | 3900 | 5 | 1200 | 113 | 15 | 0.4 | 0.35 | 0.58 | – | O=C(NO)[C@H]1CC2(CC2)CN[C@@H]1C(=O)N1CC=C(c2ccccc2)CC1
15 | – | > 5000 | 200 | > 5000 | 650 | – | – | – | – | – | O=C(NO)[C@H]1CC2(CC2)CN[C@@H]1C(=O)N1CCN(c2ccccc2)CC1
